Data: patent US12018033B2, “Inhibitors of protein arginine deiminases” (Forward Therapeutics, Inc., priority 2018, dated 2024)

Target: T1, Recombinant human PAD4 (2-663) (Homo sapiens, UniProt Q9UM07)
T1 construct: Recombinant human PAD4 (2-663) was expressed in E. coli; made in house; host or cells: E. coli
Assay: PAD4 Inhibition Assay
Format: biochemical
Details: 60 mins pre-incubation at RT; substrate BAEE with CaCl2; fluorescent signal (λex 405/λem 460)
Description: Protein: Recombinant human PAD4 (2-663) was expressed in E. coli as an N-terminal Strep-tag and C-terminal 6-his tag fusion protein. Protein was purified using Strep-tactin resin followed by size exclusion chromatography. Tags were not removed during purification. Activity of the protein was determined using ammonia quantification assay.
PAD4 enzyme (10 μL) was diluted to concentration of 75 nM in assay buffer A (100 mM HEPES, pH 8, 50 mM NaCl, 2 mM DTT, 0.6 mg/mL BSA and 0.5% DMSO) and added to wells containing 10 μL of various concentrations of test compound, or DMSO vehicle in buffer A with 1.5% final DMSO concentration in a Corning high volume 384 well black plate. Following 60 mins pre-incubation at RT with gentle shaking, the reaction was initiated by the addition of 10 μL of substrate buffer containing 3 mM N-α-benzoyl-L-arginine ethyl ester (BAEE) and 600 μM CaCl2) in assay buffer A. The reaction was stopped after 60 mins with the addition of 15 μL stop/detection buffer containing 7.5 mM phthalaldehyde, 50 mM EDTA and 7.5 mM DTT in assay buffer A. Quenched reactions were incubated at RT for 45 mins before measuring fluorescent signal (λex 405/λem 460) on an Envision plate reader (Perkin Elmer Life Sciences, Waltham, Mass., USA).

T1 sequence (Q9UM07 2-663): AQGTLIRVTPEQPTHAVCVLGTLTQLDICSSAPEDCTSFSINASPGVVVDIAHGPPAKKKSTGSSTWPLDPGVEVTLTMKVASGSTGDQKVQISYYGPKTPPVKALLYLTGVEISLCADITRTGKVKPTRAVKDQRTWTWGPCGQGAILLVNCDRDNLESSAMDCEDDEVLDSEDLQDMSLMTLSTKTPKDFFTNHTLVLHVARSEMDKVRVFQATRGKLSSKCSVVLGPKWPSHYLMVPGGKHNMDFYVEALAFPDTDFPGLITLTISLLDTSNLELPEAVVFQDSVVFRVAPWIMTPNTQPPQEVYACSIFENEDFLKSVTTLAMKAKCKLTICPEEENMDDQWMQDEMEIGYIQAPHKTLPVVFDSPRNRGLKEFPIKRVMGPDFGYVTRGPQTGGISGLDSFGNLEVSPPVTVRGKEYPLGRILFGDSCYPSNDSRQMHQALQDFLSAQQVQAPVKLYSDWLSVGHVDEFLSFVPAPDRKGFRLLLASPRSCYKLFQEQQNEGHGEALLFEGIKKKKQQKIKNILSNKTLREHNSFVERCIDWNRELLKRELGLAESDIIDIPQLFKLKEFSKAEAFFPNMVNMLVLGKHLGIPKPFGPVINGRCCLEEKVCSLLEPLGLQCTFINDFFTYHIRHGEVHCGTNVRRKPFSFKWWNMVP

IC50 [µM]	SMILES
≤ 1	N[C@@H]1CCN(C(=O)c2cc3cc(Cl)c(F)c(F)c3[nH]2)C1 [Example 1, (R)-(3-Aminopyrrolidin-1-yl)(5-chloro-6,7-difluoro-1H-indol-2-yl)methanone]
≤ 1	N[C@@H]1CCN(C(=O)c2cc3cc(Cl)cc(F)c3[nH]2)C1 [Example 2, (R)-(3-Aminopyrrolidin-1-yl)(5-chloro-7-fluoro-1H-indol-2-yl)methanone]
1 to 10	N[C@@H]1CCN(C(=O)c2cc3cc(F)c(F)c(F)c3[nH]2)C1 [Example 3, (R)-(3-Aminopyrrolidin-1-yl)(5,6,7-trifluoro-1H-indol-2-yl)methanone]
1 to 10	N[C@@H]1CCN(C(=O)c2cc3cc(F)c(Cl)c(F)c3[nH]2)C1 [Example 4, (R)-(3-Aminopyrrolidin-1-yl)(6-chloro-5,7-difluoro-1H-indol-2-yl)methanone]
≤ 1	N[C@@H]1CCN(C(=O)c2cc3cc(Br)c(F)c(F)c3[nH]2)C1 [Example 5, (R)-(3-Aminopyrrolidin-1-yl)(5-bromo-6,7-difluoro-1H-indol-2-yl)methanone]
10 to 100	N[C@@H]1CCN(C(=O)c2cc3cc(F)c(Br)c(F)c3[nH]2)C1 [Example 6, (R)-(3-Aminopyrrolidin-1-yl)(6-bromo-5,7-difluoro-1H-indol-2-yl)methanone]
10 to 100	N[C@H]1CN(C(=O)c2cc3cc(Cl)c(F)c(F)c3[nH]2)C[C@H]1F [Example 7, ((3S,4R)-3-Amino-4-fluoro-pyrrolidin-1-yl)-(5-chloro-6,7-difluoro-1H-indol-2-yl)-methanone]
1 to 10	N[C@@H]1CCN(C(=O)c2cc3cc(Cl)ccc3[nH]2)C1 [Example 8, (R)-(3-Aminopyrrolidin-1-yl)(5-chloro-1H-indol-2-yl)methanone]
≤ 1	C[C@@H](CN)NC(=O)c1cc2cc(Cl)c(F)c(F)c2[nH]1 [Example 9, (S)-N-(1-Aminopropan-2-yl)-5-chloro-6,7-difluoro-1H-indole-2-carboxamide]
1 to 10	CC[C@@H](CN)NC(=O)c1cc2cc(Cl)c(F)c(F)c2[nH]1 [Example 10, (S)-N-(1-Aminobutan-2-yl)-5-chloro-6,7-difluoro-1H-indole-2-carboxamide]
10 to 100	NCC(NC(=O)c1cc2cc(Cl)c(F)c(F)c2[nH]1)C1CC1 (stereo not drawn) [Example 11, N-(2-Amino-1-cyclopropylethyl)-5-chloro-6,7-difluoro-1H-indole-2-carboxamide]
10 to 100	NCC1(NC(=O)c2cc3cc(Cl)c(F)c(F)c3[nH]2)COC1 [Example 12, N-(3-(Aminomethyl)oxetan-3-yl)-5-chloro-6,7-difluoro-1H-indole-2-carboxamide]
1 to 10	C[C@@H]1CNC[C@H]1NC(=O)c1cc2cc(Cl)c(F)c(F)c2[nH]1 [Example 13, 5-Chloro-6,7-difluoro-N-((3S,4R)-4-methylpyrrolidin-3-yl)-1H-indole-2-carboxamide]
≤ 1	C[C@H]1CNC[C@H]1NC(=O)c1cc2cc(Cl)c(F)c(F)c2[nH]1 [Example 14, 5-Chloro-6,7-difluoro-N-((3S,4S)-4-methylpyrrolidin-3-yl)-1H-indole-2-carboxamide]
1 to 10	O=C(N[C@@H]1CNC[C@H]1O)c1cc2cc(Cl)c(F)c(F)c2[nH]1 [Example 15, 5-Chloro-6,7-difluoro-N-((3R,4R)-4-hydroxypyrrolidin-3-yl)-1H-indole-2-carboxamide]
1 to 10	O=C(N[C@@H]1CNC[C@@H]1O)c1cc2cc(Cl)c(F)c(F)c2[nH]1 [Example 16, 5-Chloro-6,7-difluoro-N-((3R,4S)-4-hydroxypyrrolidin-3-yl)-1H-indole-2-carboxamide]
10 to 100	O=C(N[C@H]1CNC[C@H]1O)c1cc2cc(Cl)c(F)c(F)c2[nH]1 [Example 17, 5-Chloro-6,7-difluoro-N-((3S,4R)-4-hydroxypyrrolidin-3-yl)-1H-indole-2-carboxamide]
10 to 100	O=C(N[C@H]1CNC[C@@H]1O)c1cc2cc(Cl)c(F)c(F)c2[nH]1 [Example 18, 5-Chloro-6,7-difluoro-N-((3S,4S)-4-hydroxypyrrolidin-3-yl)-1H-indole-2-carboxamide]
10 to 100	CC(C)C[C@@H](CN)NC(=O)c1cc2cc(Cl)c(F)c(F)c2[nH]1 [Example 19, (S)-N-(1-Amino-4-methylpentan-2-yl)-5-chloro-6,7-difluoro-1H-indole-2-carboxamide]
≤ 1	C[C@@H]1CNC[C@@H]1NC(=O)c1cc2cc(Cl)c(F)c(F)c2[nH]1 [Example 20, 5-Chloro-6,7-difluoro-N-((3R,4R)-4-methylpyrrolidin-3-yl)-1H-indole-2-carboxamide]

IC50 [µM]	SMILES
10 to 100	C[C@H](CN)NC(=O)c1cc2cc(Cl)c(F)c(F)c2[nH]1 [Example 21, (R)-N-(1-Aminopropan-2-yl)-5-chloro-6,7-difluoro-1H-indole-2-carboxamide]
≤ 1	N[C@H]1CN(C(=O)c2cc3cc(Cl)c(F)c(F)c3[nH]2)C[C@@H]1O [Example 22, ((3S,4S)-3-Amino-4-hydroxypyrrolidin-1-yl)(5-chloro-6,7-difluoro-1H-indol-2-yl)methanone]
≤ 1	O=C(NC1CNC1)c1cc2cc(Cl)c(F)c(F)c2[nH]1 [Example 23, N-(Azetidin-3-yl)-5-chloro-6,7-difluoro-1H-indole-2-carboxamide]
1 to 10	NC1CN(C(=O)c2cc3cc(Cl)c(F)c(F)c3[nH]2)C1 [Example 24, (3-Aminoazetidin-1-yl)(5-chloro-6,7-difluoro-1H-indol-2-yl)methanone]
10 to 100	O=C(N[C@@H]1CCNC1)c1cc2cc(Cl)c(F)c(F)c2[nH]1 [Example 25, (R)-5-Chloro-6,7-difluoro-N-(pyrrolidin-3-yl)-1H-indole-2-carboxamide]
1 to 10	O=C(N[C@H]1CCNC1)c1cc2cc(Cl)c(F)c(F)c2[nH]1 [Example 26, (S)-5-Chloro-6,7-difluoro-N-(pyrrolidin-3-yl)-1H-indole-2-carboxamide]
≤ 1	N[C@H]1CCN(C(=O)c2cc3cc(Cl)c(F)c(F)c3[nH]2)C1 [Example 27, (S)-(3-Aminopyrrolidin-1-yl)(5-chloro-6,7-difluoro-1H-indol-2-yl)methanone]
10 to 100	CC(C)(C)[C@@H](CN)NC(=O)c1cc2cc(Cl)c(F)c(F)c2[nH]1 [Example 28, (S)-N-(1-Amino-3,3-dimethylbutan-2-yl)-5-chloro-6,7-difluoro-1H-indole-2-carboxamide]
1 to 10	N[C@H]1CN(C(=O)c2cc3cc(Cl)c(F)c(F)c3[nH]2)C[C@@H]1N [Example 29, (5-Chloro-6,7-difluoro-1H-indol-2-yl)((3S,4S)-3,4-diaminopyrrolidin-1-yl)methanone]
10 to 100	N[C@H]1CNC[C@@H]1NC(=O)c1cc2cc(Cl)c(F)c(F)c2[nH]1 [Example 30, N-((3S,4S)-4-Aminopyrrolidin-3-yl)-5-chloro-6,7-difluoro-1H-indole-2-carboxamide]
1 to 10	N[C@H]1CN(C(=O)c2cc3cc(Cl)c(F)c(F)c3[nH]2)C[C@H]1O [Example 32, ((3S,4R)-3-Amino-4-hydroxypyrrolidin-1-yl)(5-chloro-6,7-difluoro-1H-indol-2-yl)methanone]
10 to 100	CO[C@H]1CNC[C@@H]1NC(=O)c1cc2cc(Cl)c(F)c(F)c2[nH]1 [Example 33, 5-Chloro-6,7-difluoro-N-((3S,4S)-4-methoxypyrrolidin-3-yl)-1H-indole-2-carboxamide]
10 to 100	CO[C@@H]1CNC[C@H]1NC(=O)c1cc2cc(Cl)c(F)c(F)c2[nH]1 [Example 34, 5-Chloro-6,7-difluoro-N-((3R,4R)-4-methoxypyrrolidin-3-yl)-1H-indole-2-carboxamide]
> 100	CO[C@H]1CN(C(=O)c2cc3cc(Cl)c(F)c(F)c3[nH]2)C[C@@H]1N [Example 35, ((3S,4S)-3-Amino-4-methoxypyrrolidin-1-yl)(5-chloro-6,7-difluoro-1H-indol-2-yl)methanone]
1 to 10	C[C@H]1CNC[C@@H]1NC(=O)c1cc2cc(Cl)c(F)c(F)c2[nH]1 [Example 36, 5-Chloro-6,7-difluoro-N-((3R,4S)-4-methylpyrrolidin-3-yl)-1H-indole-2-carboxamide]
1 to 10	N[C@H]1CN(C(=O)c2cc3cc(Cl)c(F)c(F)c3[nH]2)C[C@@H]1F [Example 37, ((3S,4S)-3-Amino-4-fluoropyrrolidin-1-yl)(5-chloro-6,7-difluoro-1H-indol-2-yl)methanone]
10 to 100	N[C@@H]1CCCN(C(=O)c2cc3cc(Cl)c(F)c(F)c3[nH]2)C1 [Example 38, (R)-(3-Aminopiperidin-1-yl)(5-chloro-6,7-difluoro-1H-indol-2-yl)methanone]
10 to 100	O=C(N[C@H]1CCCNC1)c1cc2cc(Cl)c(F)c(F)c2[nH]1 [Example 39, (S)-5-Chloro-6,7-difluoro-N-(piperidin-3-yl)-1H-indole-2-carboxamide]
10 to 100	O=C(N[C@@H]1CCCNC1)c1cc2cc(Cl)c(F)c(F)c2[nH]1 [Example 40, (R)-5-Chloro-6,7-difluoro-N-(piperidin-3-yl)-1H-indole-2-carboxamide]
